From patent US5514715A, “Antimicrobial agent, FR109615 and production thereof” (Fujisawa Pharmaceutical Co., Ltd., priority 1987, dated 1996)
In brackets after ≈: the same amount, converted by molar mass.

Key:
[1] = test system: Tricophyton mentagrophytes; assay: Antimicrobial activity, micro-broth dilution method (Test 1); type: cell-based; conditions: E. MEM, 37° C., 20 hours, 5% CO2, read-out: MIC (minimum inhibitory concentration)
Method: (§1) Test 1 (Antimicrobial activity)
(§2) Antimicrobial activity of FR109615 was measured by a conventional micro-broth dilution method using 96 well multi-trays.
(§3) A suspension of the test microorganism (10^6 cells/ml) was prepared by diluting an overnight cultured broth of the organism with Eagle's minimum essential medium (E. MEM). A serially diluted solution of FR109615 in E. MEM (100 μl ) was added to a well of the multi-tray. To the well, the suspension of the test organism was added. The multi-trays were incubated at 37° C. for 20 hours in 5% CO2 atmosphere.

Candida utilis = assay: as above; type: cell-based; conditions: Williopsis jadinii, E. MEM, 37° C., 20 hours, 5% CO2, read-out: MIC (minimum inhibitory concentration)
Method: as §1, §2, §3

Mucor rouxianus = assay: as above; type: cell-based; conditions: E. MEM, 37° C., 20 hours, 5% CO2, read-out: MIC (minimum inhibitory concentration)
Method: as §1, §2, §3

Candida albicans = assay: as above; type: cell-based; conditions: E. MEM, 37° C., 20 hours, 5% CO2, read-out: MIC (minimum inhibitory concentration)
Method: as §1, §2, §3

Candida krusei = assay: as above; type: cell-based; conditions: Pichia kudriavzevii, E. MEM, 37° C., 20 hours, 5% CO2, read-out: MIC (minimum inhibitory concentration)
Method: as §1, §2, §3

[2] = test system: Staphylococcus aureus Smith; assay: Protective effect against bacteria in experimental mice infection (Test 3); type: in vivo, ICR strain; conditions: inoculum 2.5 × 10^8 cfu, 10 mg/kg subcutaneous once a day for 4 days, 11 days observation, all control mice died
Method: Test 3 (Protective effect of FR109615 against bacteria in experimental mice infection)
4 Weeks old mice, ICR strain, each weighing 18-21 g. One group consists of 10 mice.
Pathogenic microorganism suspended in saline were injected into mice via the lateral tail vein. After challenge, a saline solution of FR109615 was subcutaneously injected into the mice (Dosage: 10 mg/kg) once a day for 4 days. […] All of the control mice (non-treatment group) died.

ICR mice = assay: Acute toxicity (Test 4); type: in vivo, 4 weeks old); conditions: female, single intravenous injection, 1 g/kg
Method: The acute toxicity of FR109615 was determined to ICR mice (female, 4 weeks old) by a single intravenous injection.

[3] = Solubility (physicochemical properties)
[4] = test system: pathogenic microorganisms, especially pathogenic fungi such as pathogenic yeast (e.g. Candida albicans); assay: Antimicrobial activity against pathogenic microorganisms (general statement)
C. stellatoidea FP588 = assay: Protective effect against fungi in experimental mice infection (Test 2); type: in vivo, ICR strain; conditions: Candida albicans, sc, 336 h; C. stellatoidea FP588, inoculum 2.0 × 10^6 cfu/head; cyclophosphamide-immunosuppressed mice; subcutaneous, 1 h after challenge then twice a day for 2 days; survival 14 days, probit method
Method: (§4) Test 2 (Protective effect of FR109615 against fungi in experimental mice infection) (1) Test animal 4 Weeks old mice, ICR strain, each weighing 18-21 g. One group consists of 10 mice. (2) Test method 4 Days before challenge, the test mice intraperitoneally received a saline solution of cyclophosphamide (immunosuppressant) ([…]). Each pf pathogenic microorganisms suspended in saline were injected into mice via the lateral tail vein. One hour after challenge, a saline solution of FR109615 was subcutaneously injected into the mice. This treatment was repeated twice a day for 2 days from the next day after challenge.

C. krusei FP585 = assay: as above; type: in vivo, ICR strain; conditions: Pichia kudriavzevii, sc, 336 h; C. krusei FP585, inoculum 2.0 × 10^7 cfu/head; cyclophosphamide-immunosuppressed mice; subcutaneous, 1 h after challenge then twice a day for 2 days; survival 14 days, probit method
Method: as §4

[5] = test system: C. pseudotropicalis FP584; assay: as above; type: in vivo, ICR strain; conditions: Kluyveromyces marxianus, sc, 336 h; C. pseudotropicalis FP584, inoculum 2.0 × 10^7 cfu/head; cyclophosphamide-immunosuppressed mice; subcutaneous, 1 h after challenge then twice a day for 2 days; survival 14 days, probit method
Method: as §4

Candida albicans FP622 = assay: as above; type: in vivo, ICR strain; conditions: sc, 336 h; Candida albicans FP622, inoculum 4.8 × 10^4 cfu/head; cyclophosphamide-immunosuppressed mice; subcutaneous, 1 h after challenge then twice a day for 2 days; survival 14 days, probit method
Method: as §4

C. tropicalis 8001 = assay: as above; type: in vivo, ICR strain; conditions: Candida tropicalis, sc, 336 h; C. tropicalis 8001, inoculum 5.6 × 10^4 cfu/head; cyclophosphamide-immunosuppressed mice; subcutaneous, 1 h after challenge then twice a day for 2 days; survival 14 days, probit method
Method: as §4

N[C@H]1CCC[C@H]1C(=O)O [FR109615, (1R, 2S)-2-aminocyclopentanecarboxylic] gave an MIC [1] of 250 µg/mL (≈ 1940 µM), an MIC (Candida utilis) of 32 µg/mL (≈ 248 µM) and an MIC (Mucor rouxianus) of 500 µg/mL (≈ 3870 µM). It also gave an MIC (Candida albicans) of 16 µg/mL (≈ 124 µM), an MIC (Candida krusei) of 8 µg/mL (≈ 61.9 µM) and a survival ratio [2] of 100%. For the same compound, the “acute toxicity, toxic symptom” value (ICR mice) was “No toxic symptom was observed”, the Solubility ([3]; Acetone) was “Insoluble” and the Solubility ([3]; Chloroform) was “Insoluble”. For the same compound, the Solubility ([3]; Ethanol) was “Sparingly soluble”, the Solubility ([3]; Ethyl acetate) was “Insoluble” and the Solubility ([3]; Methanol) was “Sparingly soluble”. The Solubility ([3]; Water) was “Soluble”, the antimicrobial activity [4] was “strong antimicrobial activity” and the ED50 (C. stellatoidea FP588) was 1.11 mg/kg. For the same compound, the ED50 (C. krusei FP585) was 0.78 mg/kg, the ED50 [5] was 2.38 mg/kg and the ED50 (Candida albicans FP622) was 0.87 mg/kg. It also gave an ED50 (C. tropicalis 8001) of 3.8 mg/kg.
